Test results published in paper PMC3288053 (PLoS ONE, 2012).

Legend:
GLUT4 promoter [1] = assay: GLUT4 promoter luciferase assay with rxrα or pparγ siRNA; format: cell-based; settings: Rut 20 µM
Protocol: HEK293 cells are transfected with luciferase reporter plus Renilla luciferase vector and other plasmids if needed for 5 hours, and cells are then incubated with indicated concentrations of compounds for another 24 h. Finally cells are lysed and luciferase activities are measured using Dual Luciferase Assay System kit. The results are presented as the fold activation relative to untreated cells after normalization with Renilla luciferase values. Each experiment is repeated at least twice, with each sample analyzed in triplicates.

[2] = test system: IR (Tyr1146), AKT (Ser473) in 3T3-L1 adipocytes; assay: Western blot of IR and AKT phosphorylation; format: cell-based; settings: insulin 17 nM, 5 minutes
Protocol: (§1) Insulin sensitizing effects of Rut are investigated in CHO-K1 and 3T3-L1 adipocytes. After incubation with compounds in serum-free medium for indicated time, cells are stimulated with insulin (170 nM for CHO-K1 cells and 17 nM for 3T3-L1 adipocytes) for 5 min, and the stimulation is stopped by ice-cold PBS. The effect of Rut on insulin signaling is also investigated in CHO-K1 cells. In the assay, cells are stimulated with Rut (20 µM, 8 h) or insulin (170 nM, 5 min), and then lysed on ice. GLUT4 protein level is studied in the differentiated 3T3-L1 adipocytes (the 10th day after MDI stimulation). After incubation of compounds for 48 h, cells are lysed on ice. The proteins are resolved by SDS-polyacrylamide gel electrophoresis and electro-transferred to polyvinylidene difluoride membranes. The membrane is blocked by 5% skimmed milk and incubated with antibodies. Proteins are visualized by the ECL detecting system.

[3] = test system: IR (Tyr1146), AKT (Ser473) in CHO-K1 cells; assay: Western blot of IR and AKT phosphorylation; format: cell-based; settings: insulin 170 nM, 5 minutes, different doses of Rut
Protocol: as §1

SRC1_613–773 = target: T1, SRC1_613–773 (Homo sapiens, UniProt Q15788); assay: SPR (Biacore) binding assay, control; settings: SPR control experiment
T1 construct: The plasmid pET15b-SRC1_613–773 is constructed with NdeI-BamHI sites; His-tag (N); made in house; host or cells: E. coli BL21 (DE3)
Protocol: Binding affinities of Rut towards proteins are analyzed using SPR technology based Biacore 3000 instrument (GE Healthcare). In the assay, proteins are immobilized to CM5 chips using a standard amine-coupling procedure (Biacore manual). The proteins to be covalently bound to the chips are diluted in 10 mM sodium acetate buffer (pH4.5) to a final concentration of 0.10 mg/ml. Before experiments, baseline is equilibrated with a continuous flow of running buffer (10 mM HEPES, 150 mM NaCl, 3 mM EDTA, and 0.005% (v/v) surfactant P20, pH7.4) for 2 hours. Subsequently, Rut with a gradient of concentrations is injected to the channels at a flow rate of 20 µL/min for 60 seconds, followed by disassociation for 120 seconds. The 1∶1 Langmuir binding fitting model in BIAevaluation software version 3.1 (Biacore) is used to determine the equilibrium dissociation constants (K Ds) of compounds. For SRC1 recruitment assay, purified SRC1_613–773 is immobilized to a CM5 chip. Different concentrations of PPARγ-LBD or RXRα-LBD are injected to the channel at a flow rate of 20 µL/min for 60 s, followed by disassociation for 120 s. To further detect the effects of Rut on PPARγ-LBD/SRC1 or RXRα-LBD/SRC1 interactions, 1 µM PPARγ-LBD or RXRα-LBD is incubated with Rut (16.8–100 µM) for 1 hour, and then injected onto the chip.

CHO-K1/GLUT4 cells = assay: Quantification of GLUT4 translocation ratio (IN Cell Analyzer 1000); format: cell-based
Protocol: CHO-K1 cells are transfected with pEGFPN1-GLUT4-myc plasmid using Lipofectamine 2000, and subsequently screened with G418 (800 µg/ml). The CHO-K1/GLUT4 stable cell line is obtained by picking up clones.
CHO-K1/GLUT4 cells are seeded into 96-well plate. After cells reached 100% confluence, F12 medium is changed to 3T3-L1 medium and incubated for 2 days. 8-hour serum starvation later, cells are stimulated with insulin for 5 minutes, fixed with 3.7% formaldehyde for 15 minutes, and labeled with anti-myc monoclonal antibody and secondary antibody (Alexa Fluor 647 conjuncted anti-mouse antibody). Fluorescence pictures were obtained by IN Cell Analyzer 1000 Instrument (GE Healthcare) with the same exposure time. The basic unit comprises several core components including a Nikon microscope and a high-resolution CCD camera. Membrane-located GLUT4 is represented by the intensity of red fluorescence (Alex fluor 647) and normalized by the intensity of green fluorescence (GLUT4-EGFP), which is assigned to the total GLUT4 [46].

GLUT4 promoter [4] = assay: GLUT4 promoter-luciferase reporter assay in 3T3-L1 adipocytes; format: cell-based; settings: pre-treated 24 hours
Protocol: (a) Chemical structure of (+)-Rutamarin. […] Green fluorescence represents the total GLUT4, and red fluorescence depicts the translocated GLUT4 to cell membrane. (d) Insulin (170 nM)-induced GLUT4 translocation of CHO-K1/GLUT4 cells treated with compound-2 (C2, 10 µM), pervanadate (Pervan, 100 µM) and Rut (5, 10, 20 µM) for 5 minutes. (e) Immunofluorescence with antibody against GLUT4 (green), DAPI (blue) in 3T3-L1 adipocytes. GLUT4 translocation is detected either in the insulin (17 nM) stimulated 3T3-L1 adipocytes for 5 minutes, or pre-treated with Rut (20 µM) for 8 hours and then stimulated with insulin (17 nM) for 5 minutes. (f) Rut potently stimulates GLUT4 promoter activity in 3T3-L1 adipocytes (20 µM, Rut was pre-treated in the cells for 24 hours. Reporter gene is GLUT4 promoter-luciferase plasmid together with Renilla luciferase expression vector as a control). (g) H^3-glucose uptake assay in fully differentiated 3T3-L1 adipocytes treated with C2 (10 µM) and different doses of Rut (5–25 µM). Treatment of Rut for 30 minutes improves the insulin (17 nM)-stimulated glucose uptake. (h) GLUT4 expression is determined by western blotting with an antibody against GLUT4 in 3T3-L1 adipocytes treated with Rut (20 µM) for 48 hours. Data are presented as means ± s.e.m (*P<0.05, **P<0.01) from three independent experiments.

T1 sequence (Q15788 613-773): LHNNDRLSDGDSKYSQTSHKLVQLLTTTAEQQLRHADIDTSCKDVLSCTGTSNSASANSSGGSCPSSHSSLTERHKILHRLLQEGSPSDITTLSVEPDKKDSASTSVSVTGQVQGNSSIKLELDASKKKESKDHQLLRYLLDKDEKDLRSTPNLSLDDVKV

Structure (SMILES): C=CC(C)(C)c1cc2cc3c(cc2oc1=O)O[C@H](C(C)(C)OC(C)=O)C3 [(+)-Rutamarin]
- Relative glut4-pro activity (GLUT4 promoter [1]; Fig. 6b, pSuperbasic control vector): 1.31 X
- Relative glut4-pro activity (GLUT4 promoter [1]; Fig. 6b, pSuperbasic-RXRα (rxrα siRNA)): 0.98 X
- Relative glut4-pro activity (GLUT4 promoter [1]; Fig. 6c, pSuperbasic control vector): 1.55 X
- Relative glut4-pro activity (GLUT4 promoter [1]; Fig. 6c, pSuperbasic-PPARγ (pparγ siRNA)): 1.39 X
- insulin-stimulated phosphorylation levels of IR and AKT [2]: largely increased
- insulin-induced phosphorylation of IR and AKT [3]: enhances
- binding to SRC1 (SRC1_613–773): does not bind
- EC50 (CHO-K1/GLUT4 cells; Cricetulus griseus, CHO-K1, cells pre-treated with Rut 8 hours, then insulin (170 nM) 5 minutes, read-out: EC50, enhancement of insulin-induced GLUT4 translocation): 7 µM
- basal GLUT4 translocation without insulin induction (CHO-K1/GLUT4 cells; Rut 20 µM, 8 h): induces basal GLUT4 translocation
- effect on pervanadate-stimulated GLUT4 translocation (CHO-K1/GLUT4 cells; Rut 20 µM, pervanadate 100 µM): cannot enhance
- enhancement on insulin-induced GLUT4 translocation compared with compound-2 and pervanadate (CHO-K1/GLUT4 cells; insulin 170 nM, C2 10 µM, pervanadate 100 µM, Rut 5, 10, 20 µM): even stronger
- GLUT4 promoter activity (GLUT4 promoter [4]): dose-dependently induce
